Earlier results, collected in patent US20050266042A1, “Methods and apparatus for treatment of aneurysmal tissue” (Medtronic Vascular, Inc., priority 2004, published 2005).

Settings: for route of elimination / clearance: in vivo

| Compound | route of elimination / clearance | further results |
| --- | --- | --- |
| CCC(=O)O[C@@H](O[P@](=O)(CCCCc1ccccc1)CC(=O)N1C[C@H](C2CCCCC2)C[C@H]1C(=O)O)C(C)C [fosinopril] | balanced elimination by the liver and kidneys |  |
| NCCCC[C@H](N[C@@H](CCc1ccccc1)C(=O)O)C(=O)N1CCC[C@H]1C(=O)O [lisinopril] |  | time to peak concentrations in the plasma (oral administration): about 7 hours |
| C[C@H](CS)C(=O)N1CCC[C@H]1C(=O)O [captopril] |  | bioavailability (given orally): about 75% |
| CCOC(=O)[C@H](CCc1ccccc1)N[C@@H](C)C(=O)N1CC2(C[C@H]1C(=O)O)SCCS2 [spirapril] | balanced elimination by the liver and kidneys |  |
